Like-named read-outs stand apart in the source and are kept apart here. Values belong to the compound of their own block, whether it stands above or below them.
Columns and labels:
[1] = test system: COLO32ODM tumor xenograft; test: In vivo mouse tumor xenograft, COLO32ODM; details: for tumor size compared to the control group: nude mice, 3 weeks
Method: (§1) The compounds of the present invention were administered to mouse tumor xenograft to measure tumor suppression in vivo test. BALB/C-nu female 5-week-old mice were introduced. COLO32ODM and SW480 cells, which are human colorectal cancer cells, were isolated from culture flasks using trypsin and prepared at a concentration of 1×10^8 cell/ml. It was mixed with Matrigel (Gibco, Cat. No. A14133-02) at a ratio of 1:1 and injected 100 μL subcutaneously into the dorsal side of 5-week-old mice. After 2 weeks, when the volume of the mouse tumor reached 100 mm^3, oral administration of the compound was started 5 times a week. (Day 0), After that, it was conducted for 3 weeks.
(§2) In the negative control group, 0.1% Carboxylmethyl cellulose and 0.2% tween 80 solution were administered instead of the compound according to the same administration route and administration frequency. 6 mice were used for each experimental group (FIG. 3). The size of the tumor was measured in the long axis (length, L) and the short axis (width, W) once every 3 days, and the tumor volume (mm^3) was calculated as (L×W×W)/2 thereby the average for each group was calculated. Statistical processing was performed using the GraphPad Prism6 program, and a p-value of less than 0.05 was considered significant.
A 5-week-old nude mouse whose thymus was removed and whose T cells were reduced and whose immune system was suppressed was introduced, and human colorectal cancer cell lines, COLO32ODM and SW480, were subcutaneously injected.

SIRT7 protein = target: T1, SIRT7 protein (Homo sapiens, UniProt Q9NRC8); test: SIRT Glo assay, inhibitory activity against Sirt7; assay type: biochemical; details: 10 μM compound
T1 construct: purchased SignalChem S41-30H
T1 sequence (Q9NRC8 1-400): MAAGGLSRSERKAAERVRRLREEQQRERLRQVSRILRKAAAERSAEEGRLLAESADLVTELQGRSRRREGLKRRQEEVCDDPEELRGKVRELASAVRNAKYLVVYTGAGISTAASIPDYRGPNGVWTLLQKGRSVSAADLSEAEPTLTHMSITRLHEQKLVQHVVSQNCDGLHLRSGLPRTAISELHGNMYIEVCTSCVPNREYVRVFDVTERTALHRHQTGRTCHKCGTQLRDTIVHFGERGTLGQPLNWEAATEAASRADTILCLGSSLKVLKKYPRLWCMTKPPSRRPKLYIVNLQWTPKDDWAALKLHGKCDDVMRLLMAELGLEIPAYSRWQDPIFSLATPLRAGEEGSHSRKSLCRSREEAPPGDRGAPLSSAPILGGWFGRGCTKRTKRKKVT
In short: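 Recombinant SIRT7 (20 ng per well) pre-incubated 30 min with compound in SIRT Glo buffer, then SIRT Glo substrate added for 1 h before luminescence reading. Background-subtracted signal expressed as % inhibition relative to no-compound control.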

SW480 tumor xenograft = test: In vivo mouse tumor xenograft, SW480; details: nude mice, oral 10 mpk, 20 mpk, 40 mpk, 3 weeks
Method: as §1
as §2, with “Dissolve the compound in 0.1% Carboxylmethyl cellulose (CMC) and 0.2% tween 80 solution at concentrations of 2 mg/ml, 4 mg/ml, and 8 mg/ml, and 100 ul was orally administered to achieve concentrations of 10 mpk, 20 mpk, and 40 mpk. In” for “In”, “Statistical processing was performed using the GraphPad Prism6 program, and a p-value of less than 0.05 was considered significant.” left out

COLO32ODM cells = test: LDH cytotoxicity test, cancer cell line; assay type: cell-based, human; details: 48 hours
Method: (§3) LDH released is measured to determine whether a compound is toxic.
(§4) Thermo's Cat. No. 88953 LDH Cytotoxicity assay kit was used. 20,000 cells were seeded in a 96 well plate and treated with 100 μM and 500 μM compounds after 24 hours of culture. After 48 hours, transfer 50 μL of the compound-treated culture supernatant to a new 96-well plate, add 50 μL of substrate mix buffer provided in the kit, block light, and react at room temperature for 30 minutes. After adding 50 μL of Stop solution, the absorbance was measured at 490 nm using a microplate reader (Molecular Device, spectramax i3).

WI38 cells = details: human, 48 h
Method: as §3, §4

SMILES: CCNC(=O)N1CCN(Cc2ccc(C(=O)Nc3nc4ccccc4s3)cc2)CC1 [Compound 1-37, 4-(4-(benzo[d]thiazol-2-ylcarbamoyl)benzyl)-N-ethylpiperazine-1-carboxamide]
tumor size compared to the control group ([1]; oral 10 mpk, 20 mpk, 40 mpk): reduced | dose dependence of tumor formation inhibitory effect ([1]; oral 10, 20, 40 mpk): concentration-dependent tumor formation inhibitory effect | tumor formation inhibitory effect ([1]; oral 40 mpk): most significant tumor formation inhibitory effect | inhibition at 10 µM (SIRT7 protein): 81% | tumor size compared to the control group (SW480 tumor xenograft): reduced | cytotoxicity (LDH release) compared to the positive control that damaged all cell membranes (COLO32ODM cells; 100 μM): 62.1% | cytotoxicity (LDH release) compared to the positive control that damaged all cell membranes (COLO32ODM cells; 500 μM): 62.0% | cytotoxicity (LDH release) compared to the positive control that damaged all cell membranes (WI38 cells; 100 μM): 29.9% | cytotoxicity (LDH release) compared to the positive control that damaged all cell membranes (WI38 cells; 500 μM): 41.6%

SMILES: CCNC(=O)N1CCC(=Cc2ccc(C(=O)Nc3nc4ccccc4s3)c(Cl)c2)CC1 [Compound 1-105, 4-(4-(benzo[d]thiazol-2-ylcarbamoyl)-3-chlorobenzylidene)-N-ethylpiperidine-1-carboxamide]
tumor size compared to the control group [1]: reduced | inhibition at 10 µM (SIRT7 protein): 100%

SMILES: O=C(Nc1nc2ccccc2s1)c1ccc(C=C2CCN(C(=O)Nc3ccccc3)CC2)cc1Cl [Compound 1-106, 4-(4-(benzo[d]thiazol-2-ylcarbamoyl)-3-chlorobenzylidene)-N-phenylpiperidine-1-carboxamide]
tumor size compared to the control group [1]: reduced | inhibition at 10 µM (SIRT7 protein): 99%

Next, values leading:

inhibition at 10 µM (SIRT7 protein): 34%
SMILES: O=C(Nc1nc2ccccc2s1)c1ccc(C=C2CCN(C(=O)Nc3ccc(C(F)(F)F)cc3)CC2)cc1Cl [Compound 1-107, 4-(4-(benzo[d]thiazol-2-ylcarbamoyl)-3-chlorobenzylidene)-N-(4-(trifluoromethyl)phenyl)piperidine-1-carboxamide]

inhibition at 10 µM (SIRT7 protein): 100%
SMILES: O=C(Nc1nc2ccccc2s1)c1ccc(C=C2CCN(C(=O)Nc3ccc(F)cc3)CC2)cc1Cl [Compound 1-108, 4-(4-(benzo[d]thiazol-2-ylcarbamoyl)-3-chlorobenzylidene)-N-(4-fluorophenyl)piperidine-1-carboxamide]

Source: patent US20240116897A1, “BENZOTHIAZOLE AND BENZIMIDAZOLE DERIVATIVES, PHARMACEUTICALLY ACCEPTABLE SALT THEREOF, PREPARATION METHOD THEREFOR, AND PHARMACEUTICAL COMPOSITION COMPRISING SAME AS ACTIVE INGREDIENT” (KOREA RESEARCH INSTITUTE OF CHEMICAL TECHNOLOGY, priority 2021, published 2024)
